The values below are quoted from earlier work in patent US7579360B2, “Triazolopyridine 11-beta hydroxysteroid dehydrogenase type I inhibitors” (Bristol-Myers Squibb Company, priority 2005, dated 2009).

The target in the series is T1, 11beta-HSD1 (Homo sapiens, UniProt P28845).
T1 construct: host or cells: patients with type 2 diabetes (liver, in vivo)
The note with it: mildly overweight individuals with type 2 diabetes, seven days, versus placebo.

T1 sequence (P28845 whole entry): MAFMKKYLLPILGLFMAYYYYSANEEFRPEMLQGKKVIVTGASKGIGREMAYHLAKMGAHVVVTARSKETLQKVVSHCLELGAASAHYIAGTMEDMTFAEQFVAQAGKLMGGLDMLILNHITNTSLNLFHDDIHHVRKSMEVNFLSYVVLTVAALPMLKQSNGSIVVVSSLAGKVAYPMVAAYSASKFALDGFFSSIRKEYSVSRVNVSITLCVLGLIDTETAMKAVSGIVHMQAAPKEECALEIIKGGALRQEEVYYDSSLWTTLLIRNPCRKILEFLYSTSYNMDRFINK

For the compound `CC1(C)[C@@H](OC(=O)CCC(=O)O)CC[C@]2(C)[C@H]3C(=O)C=C4[C@@H]5C[C@@](C)(C(=O)O)CC[C@]5(C)CC[C@@]4(C)[C@]3(C)CC[C@@H]12` [carbenoxolone], the hepatic glucose production entry was “decrease”.
